The values below come from article PMC7942396, “Drug Repurposing Screen for Compounds Inhibiting the Cytopathic Effect of SARS-CoV-2” (Frontiers in Pharmacology, 2021).

Where a name gives a salt, the structure may show the parent alone. Read-outs that look alike come from different tables or passages of the source.

The nature of one data set: in vitro. Particulars: African green monkey.
Data set [1] has as its system SARS-CoV-2 (USA_WA1/2020). The data set is described as follows: microbe, parasite or virus in culture. It is filed as cell-based.
[2] abbreviates: Severe acute respiratory syndrome coronavirus 2, Vero C1008, read-out: CPE % Efficacy.
The mark [3] stands for this setting: Severe acute respiratory syndrome coronavirus 2, Vero C1008, SARS-CoV-2 CPE assay, Vero E6 cells, confirmed anti-SARS-CoV-2 compounds, read-out: CPE EC50.
Setting [4] is: Severe acute respiratory syndrome coronavirus 2, Vero C1008, SARS-CoV-2 CPE assay, Vero E6 cells, efficacy, read-out: CPE % Efficacy.
Setting [5] is: Severe acute respiratory syndrome coronavirus 2, Vero C1008, SARS-CoV-2 CPE assay, Vero E6 cells, read-out: CPE % Efficacy.
The mark [6] stands for this setting: Severe acute respiratory syndrome coronavirus 2, Vero C1008, SARS-CoV-2 CPE assay, Vero E6 cells, read-out: CPE EC50.
[7] abbreviates: Severe acute respiratory syndrome coronavirus 2, Vero C1008, read-out: CPE EC50 (uM).
[8] abbreviates: Severe acute respiratory syndrome coronavirus 2, Vero C1008, 72 h, read-out: CPE EC50.
Where [9] appears, read: Severe acute respiratory syndrome coronavirus 2, Vero C1008, […], DMSO 0%, no-virus control 100%, hit confirmation, read-out: CPE % efficacy.

Usually EC50 stands for the concentration giving half of the maximal effect. Turning to `NC(=O)c1cccc2cn(-c3ccc([C@@H]4CCCNC4)cc3)nc12` [Niraparib], in the data set “in vitro”, the CC50 amounted to 15.8 µM and the cytotoxicity was found to be 24.3%. Besides, the Emax in data set [1] (setting [2]) was 134%. The 50% effective concentration (EC50) in data set [1] (Severe acute respiratory syndrome coronavirus 2, Vero C1008, read-out: CPE EC50) was 11.2 µM.
With `CC(=O)Oc1ccccc1C(=O)Nc1ncc([N+](=O)[O-])s1` [Nitazoxanide], in the data set “in vitro”, the CC50 at 72 h worked out at 12.6 µM and the cytotoxicity at 72 h turned out to be 54.7%. In addition, the EC50 in data set [1] (setting [3]) amounted to 6.31 µM. Further, in data set [1] (setting [4]), the Emax stood at 73.7%.
Regarding `C=C1C(=O)[C@]23[C@H](O)[C@H]1CC[C@H]2[C@@]12CO[C@]3(O)[C@@H](O)[C@@H]1C(C)(C)CC[C@@H]2O` [Oridonin], the cytotoxicity in “in vitro” worked out at 27.4%. Further, the Emax in data set [1] (setting [5]) was 130%. Moreover, the concentration for a half-maximal effect (EC50) in data set [1] (setting [6]) turned out to be 11.2 µM.
For `OCCOc1ccc(/C(=C(/CCCl)c2ccccc2)c2ccccc2)cc1` [Ospemifene], in “in vitro”, the CC50 came out at 12.6 µM and the cytotoxicity was 26.6%. In addition, the Emax in data set [1] (setting [2]) is 48.2%. In data set [1] (setting [7]), the EC50 is 12.6 µM.
Take `O=c1[nH]c2ccccc2n1CCCN1CCN(C(c2ccccc2)c2ccccc2)CC1` [Oxatomide]: the cytotoxicity at 72 h in “in vitro” amounted to 31.3%. Besides, the concentration for a half-maximal effect (EC50) in data set [1] (setting [3]) turned out to be 10 µM. The Emax in data set [1] (setting [4]) is 83.9%.
Turning to `N#Cc1ccc2c(c1)N(CCCN1CCC(O)CC1)c1ccccc1S2` [PERICIAZINE], the cytotoxicity in “in vitro” amounted to 23.1%. The Emax in data set [1] (setting [5]) was determined as 107%. Moreover, the EC50 in data set [1] (setting [6]) is 12.6 µM.
In the case of `Fc1ccc2[nH]ccc2c1-c1nc(N2CCOCC2)c2sc(CN3CCN(CC4CC4)CC3)cc2n1` [PI-3065], in “in vitro”, the CC50 at 72 h was determined as 5.62 µM and the cytotoxicity at 72 h is 52.2%. Moreover, the Emax in data set [1] (setting [5]) was determined as 32.7%. Besides, the EC50 in data set [1] (setting [6]) amounted to 14.1 µM.
`NC(=O)c1cnc(N[C@@H]2CCCC[C@@H]2N)nc1Nc1cccc(-n2nccn2)c1` [PRT-062607]: in the data set “in vitro”, the cytotoxicity turned out to be 24.9%. The EC50 in data set [1] (setting [3]) was determined as 11.2 µM. For the same compound, the Emax in data set [1] (setting [4]) stood at 66.4%.
Compound `CNCCC=C1c2ccccc2CCc2ccccc21` [Pamelor] came in with a cytotoxicity in “in vitro” of 0%. The Emax in data set [1] (setting [2]) was found to be 103%. Further, in data set [1] (setting [7]), the half-maximal effective concentration (EC50) was determined as 12.6 µM.
With `c1ccc(-c2cc(CCC3CCNCC3)c3ccccc3n2)cc1` [Pipequaline], in the data set “in vitro”, the CC50 at 72 h turned out to be 12.6 µM and the cytotoxicity at 72 h amounted to 108%. The EC50 in data set [1] (setting [3]) was found to be 10 µM. Further, the Emax in data set [1] (setting [4]) amounted to 33.3%.
In “in vitro”, `CN1CCC(=C2c3ccccc3CCc3sccc32)CC1` [Pizotifen] showed a CC50 at 72 h of 11.2 µM and a cytotoxicity at 72 h of 13.4%. Besides, in data set [1] (setting [3]), the EC50 came to 11.2 µM. The Emax in data set [1] (setting [4]) came out at 111%.
As to `COC(=O)[C@]1(C)CC[C@]2(C)CC[C@]3(C)C4=CC=C5C(=CC(=O)C(O)=C5C)[C@]4(C)CC[C@@]3(C)[C@@H]2C1` [Pristimerin, reference compound], the CC50 in the data set “in vitro” is 1.1 µM. Further, in data set [1] (setting [8]), the half-maximal effective concentration (EC50) worked out at 0.11 µM. The Emax in data set [1] (setting [9]) was determined as 87.4%.
In the data set “in vitro”, `CN1CCN(CCCN2c3ccccc3Sc3ccc(Cl)cc32)CC1` [Prochlorperazine dimaleate] yielded a CC50 of 22.4 µM and a cytotoxicity of 103%. For the same compound, in data set [1] (setting [4]), the Emax came out at 107%.
In the case of `CCCN(CCC)C(=O)C(CCC(=O)OCCCN1CCN(CCOC(=O)Cc2c(C)n(C(=O)c3ccc(Cl)cc3)c3ccc(OC)cc23)CC1)NC(=O)c1ccccc1` (stereo not shown) [Proglumetacin, reference compound], in the data set “in vitro”, the cytotoxicity at 72 h was under 30%. In data set [1] (setting [8]), the 50% effective concentration (EC50) is 10 µM. The Emax in data set [1] (setting [9]) stood at 87.6%.
`CN(C)CCCN1c2ccccc2Sc2ccccc21` [Promazine hydrochloride] came in with a cytotoxicity in the data set “in vitro” of 9.4%. Moreover, the concentration giving a half-maximal response (EC50) in data set [1] (setting [3]) turned out to be 10 µM. In addition, the Emax in data set [1] (setting [4]) is 55.8%.
With `CC(CN1c2ccccc2Sc2ccccc21)N(C)C` (stereo not shown) [Promethazine], in the data set “in vitro”, the CC50 at 72 h stood at 15.8 µM and the cytotoxicity at 72 h came to 15.4%. In data set [1] (setting [3]), the EC50 came out at 11.2 µM. The Emax in data set [1] (setting [4]) is 94%.
`CCCNCC(O)COc1ccccc1C(=O)CCc1ccccc1` (stereo not shown) [Propafenone hydrochloride] yielded a cytotoxicity in the data set “in vitro” of 0%. In addition, the Emax in data set [1] (setting [5]) is 61.6%. Besides, in data set [1] (setting [6]), the half-maximal effective concentration (EC50) was 14.1 µM.
